Measurements taken from ChEMBL document CHEMBL3885881, “DrugMatrix”.
Several values for one entry are separate records, joined by “and”; a condition that tells them apart may be missing. Equal values may be shown once.

Species: Rattus norvegicus
Test: DrugMatrix - Regimen: Daily Repeat
Assay type: toxicity, organism-based, Sprague-Dawley
Design: regimen Daily Repeat, gender Male, age 6-8 weeks
Settings: in vivo, po, route oral GAVAGE, vehicle 100 % WATER
[1] = 0 mg/kg, 72 h, tissue Blood, dose level Control, time 3 day
[2] = 0 mg/kg, 72 h, tissue Plasma, dose level Control, time 3 day
[3] = 0 mg/kg, 120 h, tissue Blood, dose level Control, time 5 day
[4] = 0 mg/kg, 120 h, tissue Plasma, dose level Control, time 5 day
[5] = 235 mg/kg, 72 h, tissue Blood, dose level Low, time 3 day

CCCC(CCC)C(=O)O [VALPROIC ACID]
ABSOLUTE BASOPHIL [1]: 0 CELLS/uL
ABSOLUTE LYMPHOCYTE [1]: 10696 CELLS/uL and 11257.17 CELLS/uL
ABSOLUTE SEGMENTED NEUTROPHIL [1]: 1045.33 CELLS/uL and 1220.33 CELLS/uL
BASOPHIL [1]: 0%
EOSINOPHIL [1]: 1% and 0.33%
ERYTHROCYTE COUNT [1]: 5.87 x10E6/uL and 5 x10E6/uL
HEMATOCRIT [1]: 38.5% and 32.62%
LEUKOCYTE COUNT [1]: 12.07 x10E3/uL and 12.58 x10E3/uL
LYMPHOCYTE [1]: 88.33% and 89%
MEAN CORPUSCULAR HEMOGLOBIN [1]: 23.47 pg and 25.67 pg
MEAN CORPUSCULAR HEMOGLOBIN CONCENTRATION [1]: 35.7 G/DL and 39.35 G/DL
MEAN CORPUSCULAR VOLUME [1]: 65.63 fL and 65.23 fL
MONOCYTE [1]: 2% and 0.67%
NEUTROPHIL [1]: 8.67% and 10%
NUCLEATED RED BLOOD CELLS [1]: 0 /100WBC
PLATELET COUNT [1]: 1151.33 x10E3/uL and 1162.5 x10E3/uL
ALANINE AMINOTRANSFERASE [2]: 60.67 u/L and 45.33 u/L
ALBUMIN [2]: 4.23 G/DL and 3.95 G/DL
ALKALINE PHOSPHATASE [2]: 377.67 u/L and 356.17 u/L
ASPARTATE AMINOTRANSFERASE [2]: 85.33 u/L and 81 u/L
BLOOD UREA NITROGEN [2]: 15 mg/dL and 11 mg/dL
CARBON DIOXIDE [2]: 37 mmol/L and 29.83 mmol/L
CHLORIDE [2]: 97.67 MEQ/L and 97.8 MEQ/L
CHOLESTEROL [2]: 70.67 mg/dL and 65.17 mg/dL
CREATINE PHOSPHOKINASE [2]: 361.67 u/L and 211.33 u/L
CREATININE [2]: 0.18 mg/dL and 0.11 mg/dL
GLUCOSE [2]: 154 mg/dL and 164.67 mg/dL
LACTATE DEHYDROGENASE [2]: 99 u/L and 143.17 u/L
LIPASE [2]: 12.67 u/L and 10.17 u/L
PHOSPHORUS [2]: 9.53 mg/dL and 10.88 mg/dL
POTASSIUM [2]: 5.55 MEQ/L and 6.08 MEQ/L
SODIUM [2]: 143.1 MEQ/L and 141.54 MEQ/L
TOTAL BILIRUBIN [2]: 0.2 mg/dL and 0.23 mg/dL
TOTAL PROTEIN [2]: 5.97 G/DL and 5.65 G/DL
URIC ACID [2]: 0.77 mg/dL and 1 mg/dL
ABSOLUTE BASOPHIL [3]: 0 CELLS/uL
ABSOLUTE LYMPHOCYTE [3]: 9535 CELLS/uL and 9267.83 CELLS/uL
ABSOLUTE MONOCYTE [3]: 182 CELLS/uL and 194.33 CELLS/uL
ABSOLUTE SEGMENTED NEUTROPHIL [3]: 783 CELLS/uL and 572.5 CELLS/uL
BASOPHIL [3]: 0%
EOSINOPHIL [3]: 0% and 0.33%
ERYTHROCYTE COUNT [3]: 5.35 x10E6/uL and 5.41 x10E6/uL
HEMATOCRIT [3]: 34.17% and 36.17%
LEUKOCYTE COUNT [3]: 10.5 x10E3/uL and 10.08 x10E3/uL
LYMPHOCYTE [3]: 89.67% and 92.17%
MEAN CORPUSCULAR HEMOGLOBIN [3]: 24.67 pg and 25.73 pg
MEAN CORPUSCULAR HEMOGLOBIN CONCENTRATION [3]: 38.57 G/DL and 38.45 G/DL
MEAN CORPUSCULAR VOLUME [3]: 63.9 fL and 66.97 fL
MONOCYTE [3]: 1.67% and 1.83%
NEUTROPHIL [3]: 8.67% and 5.67%
PLATELET COUNT [3]: 990 x10E3/uL and 1122.33 x10E3/uL
ALANINE AMINOTRANSFERASE [4]: 46.67 u/L and 52.83 u/L
ALBUMIN [4]: 3.97 G/DL and 4.12 G/DL
ALKALINE PHOSPHATASE [4]: 343.67 u/L and 367.33 u/L
ASPARTATE AMINOTRANSFERASE [4]: 71 u/L and 88 u/L
BLOOD UREA NITROGEN [4]: 11.67 mg/dL and 12.67 mg/dL
CARBON DIOXIDE [4]: 27 mmol/L and 33.67 mmol/L
CHLORIDE [4]: 105.33 MEQ/L and 97 MEQ/L
CHOLESTEROL [4]: 70.67 mg/dL and 67.5 mg/dL
CREATINE PHOSPHOKINASE [4]: 208.67 u/L and 358.67 u/L
CREATININE [4]: 0.1 mg/dL and 0.14 mg/dL
GLUCOSE [4]: 161.33 mg/dL and 152.33 mg/dL
LIPASE [4]: 9.33 u/L and 10.5 u/L
PHOSPHORUS [4]: 12.7 mg/dL and 10.63 mg/dL
POTASSIUM [4]: 5.59 MEQ/L and 5.99 MEQ/L
SODIUM [4]: 147.1 MEQ/L and 141.85 MEQ/L
TOTAL BILIRUBIN [4]: 0.17 mg/dL and 0.2 mg/dL
TOTAL PROTEIN [4]: 5.97 G/DL and 6.18 G/DL
URIC ACID [4]: 0.73 mg/dL and 0.52 mg/dL
ABSOLUTE BASOPHIL [5]: 0 CELLS/uL
ABSOLUTE EOSINOPHIL [5]: 39.33 CELLS/uL
ABSOLUTE LYMPHOCYTE [5]: 3794.33 CELLS/uL
